Converted amounts (≈) assume the structure as drawn. Read-outs that look alike come from different tables or passages of the source.
What was measured:
Format in all cases: cell-based
[1] = system: S. pneumoniae ATCC 49619; assay: MIC against S. pneumoniae ATCC 49619; conditions: Streptococcus pneumoniae, ATCC49619
[2] = system: S. pyogenes ATCC 19615; assay: MIC against S. pyogenes ATCC 19615; conditions: Streptococcus pyogenes, ATCC19615; S. pyogenes ATCC 19615; read-out: MIC
[3] = system: E. coli MP-74 LptD mutant; assay: MIC against E. coli MP-74 LptD mutant; conditions: Escherichia coli
[4] = system: E. coli MP-9 ΔTolC; assay: MIC against E. coli MP-9 ΔTolC; conditions: Escherichia coli
[5] = system: S. aureus MP-549 msr(a) USA 300; assay: MIC against S. aureus MP-549 msr(a) USA 300; conditions: Staphylococcus aureus, USA300, S. aureus MP-549 msr(a) USA 300
[6] = system: S. aureus BAA 977 iErmA; assay: MIC against S. aureus BAA 977 iErmA; conditions: Staphylococcus aureus, BAA977
[7] = system: E. faecalis ATCC 29212; assay: MIC against E. faecalis ATCC 29212; conditions: Enterococcus faecalis
[8] = system: E. coli ATCC 15922; assay: MIC against E. coli ATCC 15922; conditions: Escherichia coli, ATCC15922; E. coli ATCC 15922; read-out: MIC
[9] = system: S. aureus ATCC 29213; assay: MIC against S. aureus ATCC 29213
[10] = system: S. pneumoniae MMX 3031 cMefA; assay: MIC against S. pneumoniae MMX 3031 cMefA; conditions: Streptococcus pneumoniae, MMX3031CMEFA
[11] = system: E. coli ATCC 25922; assay: MIC against E. coli ATCC 25922; conditions: Escherichia coli, ATCC25922
[12] = system: H. influenzae ATCC 49247; assay: MIC against H. influenzae ATCC 49247; conditions: Haemophilus influenzae, ATCC49247
[13] = system: S. aureus MMX 3035 cErmA; assay: MIC against S. aureus MMX 3035 cErmA; conditions: Staphylococcus aureus, MMX3035CERMA; S. aureus MMX 3035 cErmA; read-out: MIC
[14] = system: E. faecalis MMX 847 Macrolide-Resistant; assay: MIC against E. faecalis MMX 847 Macrolide-Resistant; conditions: Enterococcus faecalis; E. faecalis MMX 847 Macrolide-Resistant (MacRes); read-out: MIC
[15] = system: S. pyogenes MMX 946 Macrolide-Resistant; assay: MIC against S. pyogenes MMX 946 Macrolide-Resistant; conditions: Streptococcus pyogenes; S. pyogenes MMX 946 Macrolide-Resistant (MacRes); read-out: MIC
[16] = system: K. pneumoniae ATCC 10031; assay: MIC against K. pneumoniae ATCC 10031; conditions: Klebsiella pneumoniae, ATCC10031
[17] = S. pneumoniae ATCC 49619, read-out: MIC
[18] = Staphylococcus aureus, ATCC29213, S. aureus ATCC 29213, read-out: MIC
[19] = E. coli ATCC 25922, read-out: MIC
[20] = H. influenzae ATCC 49247, read-out: MIC

Structure (SMILES) | MIC [1, 17] | MIC [2] | MIC [3] | MIC [4] | MIC [5] | MIC ([7]; ATCC29212, read-out: MIC) | MIC [9, 18] | MIC [11] | MIC [12] | MIC [16] | other results
CSC1O[C@H]([C@H](NC(=O)[C@H]2NC[C@@H]3C[C@H](c4ccc(C#N)cc4)CCO[C@H]32)[C@H](C)Cl)C(O)[C@@H](O)[C@H]1O (some centres unmarked) [FSA-512081b] | ≤ 0.06 µg/mL | ≤ 0.06 µg/mL | 37 µg/mL (≈ 68.5 µM) | 8 µg/mL (≈ 14.8 µM) | 1 µg/mL (≈ 1.85 µM) | 1 µg/mL (≈ 1.85 µM) |  |  |  |  | MIC [6]: 1 µg/mL (≈ 1.85 µM)
CSC1O[C@H]([C@H](NC(=O)[C@H]2NC[C@@H]3CC(c4ccc(C)cc4)CCO[C@H]32)[C@H](C)Cl)C(O)[C@@H](O)[C@H]1O (some centres unmarked) [FSA-511044] |  | ≤ 0.06 µg/mL |  |  | 0.5 µg/mL (≈ 0.945 µM) | 2 µg/mL (≈ 3.78 µM) | 0.23 µg/mL (≈ 0.435 µM) |  |  |  | MIC [8]: > 64 µg/mL; MIC [1]: 0.5 µg/mL (≈ 0.945 µM)
CSC1O[C@H]([C@H](NC(=O)[C@H]2NC[C@@H]3C[C@@H](c4ccc(C#N)cc4)CCO[C@H]32)[C@H](C)Cl)C(O)[C@@H](O)[C@H]1O (some centres unmarked) [FSA-512081a] |  |  |  |  |  |  |  |  |  |  | MIC [10]: ≤ 0.06 µg/mL; MIC [6]: 1 µg/mL (≈ 1.85 µM)
CSC1O[C@H]([C@H](NC(=O)[C@H]2NC[C@@H]3C[C@@H](C4CCNCC4)CCO[C@H]32)[C@H](C)Cl)C(O)[C@@H](O)[C@H]1O (some centres unmarked) [FSA-512011] | 1 µg/mL (≈ 1.92 µM) | 4 µg/mL (≈ 7.66 µM) | > 256 µg/mL | > 256 µg/mL | 8 µg/mL (≈ 15.3 µM) |  | 8 µg/mL (≈ 15.3 µM) | > 256 µg/mL | > 256 µg/mL |  | 
CSC1O[C@H]([C@H](NC(=O)[C@H]2NC[C@@H]3C[C@@H](C4CCN(C)CC4)CCO[C@H]32)[C@H](C)Cl)C(O)[C@@H](O)[C@H]1O (some centres unmarked) [FSA-512012] | 1 µg/mL (≈ 1.87 µM) | 4 µg/mL (≈ 7.46 µM) | > 256 µg/mL | > 256 µg/mL | 8 µg/mL (≈ 14.9 µM) |  | 8 µg/mL (≈ 14.9 µM) | > 256 µg/mL | > 256 µg/mL |  | 
CSC1O[C@H]([C@H](NC(=O)[C@@H]2[C@@H]3OCC=CC[C@H]3CN2C2CC2)[C@H](C)Sc2ccc(-c3cccnc3)cc2)C(O)[C@@H](O)[C@H]1O (some centres unmarked) [FSA-214009a] | 4 µg/mL (≈ 6.37 µM) | 4 µg/mL (≈ 6.37 µM) |  |  |  | > 64 µg/mL |  |  |  |  | MIC [8]: > 64 µg/mL
CSC1O[C@H]([C@H](NC(=O)[C@H]2NC[C@@H]3C=C(c4ccc(F)cc4F)CCO[C@@H]23)[C@H](C)Cl)C(O)[C@@H](O)[C@H]1O (some centres unmarked) [FSA-511072] |  | 0.95 µg/mL (≈ 1.73 µM) |  |  | 1 µg/mL (≈ 1.82 µM) | 4 µg/mL (≈ 7.29 µM) | 1 µg/mL (≈ 1.82 µM) |  |  |  | MIC [13]: > 64 µg/mL; MIC [11, 19]: > 64 µg/mL; MIC [14]: > 64 µg/mL; MIC [6]: 1 µg/mL (≈ 1.82 µM); MIC [12, 20]: > 64 µg/mL; MIC [15]: > 64 µg/mL
CSC1O[C@H]([C@H](NC(=O)[C@H]2NC[C@@H]3CC(NCc4ccccc4F)CCO[C@H]32)[C@H](C)Cl)C(O)[C@@H](O)[C@H]1O (some centres unmarked) [FSA-510072] | 32 µg/mL (≈ 56.9 µM) | 8 µg/mL (≈ 14.2 µM) | > 64 µg/mL | > 64 µg/mL |  |  |  | > 64 µg/mL | > 64 µg/mL | > 64 µg/mL | MIC ([7]; ATCC29212): > 64 µg/mL
CSC1O[C@H]([C@H](NC(=O)[C@H]2NC[C@@H]3CC(NC4CC4)CCO[C@H]32)[C@H](C)Cl)C(O)[C@@H](O)[C@H]1O (some centres unmarked) [FSA-510011] | 8 µg/mL (≈ 16.2 µM) | 2 µg/mL (≈ 4.05 µM) | > 64 µg/mL | > 64 µg/mL |  |  |  | > 64 µg/mL | > 64 µg/mL | > 64 µg/mL | MIC ([7]; ATCC29212): > 64 µg/mL
CSC1O[C@H]([C@H](NC(=O)[C@H]2NC[C@@H]3CC(NCc4cccc(F)c4)CCO[C@H]32)[C@H](C)Cl)C(O)[C@@H](O)[C@H]1O (some centres unmarked) [FSA-510073] | 8 µg/mL (≈ 14.2 µM) | 2 µg/mL (≈ 3.56 µM) | > 64 µg/mL | > 64 µg/mL |  |  |  | > 64 µg/mL | > 64 µg/mL | > 64 µg/mL | MIC ([7]; ATCC29212): > 64 µg/mL
CSC1O[C@H]([C@H](NC(=O)[C@H]2NC[C@@H]3C=C(c4cc(F)cc(F)c4)CCO[C@@H]23)[C@H](C)Cl)C(O)[C@@H](O)[C@H]1O (some centres unmarked) [FSA-511074] |  | 0.5 µg/mL (≈ 0.911 µM) |  |  | 1 µg/mL (≈ 1.82 µM) | 4 µg/mL (≈ 7.29 µM) | 2 µg/mL (≈ 3.64 µM) |  |  |  | MIC [13]: > 64 µg/mL; MIC [11, 19]: > 64 µg/mL; MIC [14]: > 64 µg/mL; MIC [6]: 2 µg/mL (≈ 3.64 µM); MIC [12, 20]: > 64 µg/mL; MIC [15]: > 64 µg/mL
CSC1O[C@H]([C@H](NC(=O)[C@H]2NC[C@@H]3CCCCO[C@@H]32)[C@H](C)Cl)C(O)[C@@H](O)[C@H]1O (some centres unmarked) [FSA-504062] |  |  | > 64 µg/mL | > 64 µg/mL | 1 µg/mL (≈ 2.28 µM) |  | 2 µg/mL (≈ 4.56 µM) | > 64 µg/mL | > 64 µg/mL | > 64 µg/mL | 
CSC1O[C@H]([C@H](NC(=O)[C@H]2NC[C@@H]3C[C@@H](c4ccc(C#N)cc4)CCO[C@H]32)[C@H](C)Cl)C(O)[C@@H](O)[C@H]1O (some centres unmarked) [FSA-511046] | ≤ 0.06 µg/mL | ≤ 0.06 µg/mL |  | 8 µg/mL (≈ 14.8 µM) | 0.5 µg/mL (≈ 0.926 µM) | 1 µg/mL (≈ 1.85 µM) |  |  |  |  | MIC [8]: > 64 µg/mL; MIC ([9]; S. aureus ATCC 29213): 1 µg/mL (≈ 1.85 µM)
CSC1O[C@H]([C@H](NC(=O)[C@H]2NC[C@@H]3CC(c4ccc(-c5ccccc5)cc4)=CCO[C@H]32)[C@H](C)Cl)C(O)[C@@H](O)[C@H]1O (some centres unmarked) [FSA-510001] | 4 µg/mL (≈ 6.79 µM) | 2 µg/mL (≈ 3.39 µM) | 8 µg/mL (≈ 13.6 µM) | > 64 µg/mL |  |  | 2 µg/mL (≈ 3.39 µM) | > 64 µg/mL |  | > 64 µg/mL | MIC [6]: 2 µg/mL (≈ 3.39 µM); MIC ([7]; ATCC29212): 8 µg/mL (≈ 13.6 µM)
CSC1O[C@H]([C@H](NC(=O)[C@H]2NC[C@@H]3CC=CCO[C@@H]32)[C@H](C)Cl)C(O)[C@@H](O)[C@H]1O (some centres unmarked) [FSA-504059] |  |  | > 64 µg/mL | > 64 µg/mL | 2 µg/mL (≈ 4.58 µM) |  | 2 µg/mL (≈ 4.58 µM) | > 64 µg/mL | > 64 µg/mL | > 64 µg/mL | 
COc1ccc(C2CCO[C@@H]3[C@H](CN[C@@H]3C(=O)N[C@H]([C@H](C)Cl)[C@H]3OC(SC)[C@H](O)[C@H](O)C3O)C2)cc1 (some centres unmarked) [FSA-511045] | ≤ 0.06 µg/mL | ≤ 0.06 µg/mL | 37 µg/mL (≈ 67.9 µM) | 8 µg/mL (≈ 14.7 µM) |  | 1 µg/mL (≈ 1.83 µM) | 0.3 µg/mL (≈ 0.55 µM) |  |  |  | MIC [8]: > 64 µg/mL
CSC1O[C@H]([C@H](NC(=O)[C@H]2NC[C@@H]3CC(NCc4ccc(F)cc4)CCO[C@H]32)[C@H](C)Cl)C(O)[C@@H](O)[C@H]1O (some centres unmarked) [FSA-510074] |  | 8 µg/mL (≈ 14.2 µM) | > 64 µg/mL |  |  |  |  | > 64 µg/mL | > 64 µg/mL | > 64 µg/mL | MIC ([7]; ATCC29212): > 64 µg/mL

Reference: patent publication US20220073554A1, “LINCOSAMIDE ANTIBIOTICS AND USES THEREOF” (President and Fellows of Harvard College, priority 2017, published 2022)
